What was measured:
[1] = system: WS‐12‐evoked action potentials in primary cultures of murine DRG sensory neurons; test: Multielectrode array (MEA): WS-12-evoked action potential firing in DRG sensory neurons; format: cell-based; conditions: Mus musculus, Neuron; 0.43 μM compound, 1 μM WS-12, MEA, P2/P1; read-out: inhibition of WS‐12‐induced action potential firing
Method: Complementarily, we examined the effect of compound 23 on WS‐12‐evoked action potentials in primary cultures of murine DRG sensory neurons. For this task, we recorded neuronal excitability using multielectrode arrays (MEAs). […] A protocol of two sequential pulses of WS‐12 interspersed with a washing pulse was applied to correct for channel desensitization (Fig. 7A, upper recording). Compounds 23 and AMTB (0.43 and 10 μM, respectively) were applied 1 min before and during the second WS‐12 pulse (Fig. 7A, second, third, and fourth recordings). As depicted in Fig. 7B, compound 23 virtually abolished action potential firings induced by WS‐12 application in murine primary afferent neurons (≥ 75%). Thus, compound 23 appears to be a potent inhibitor of WS12‐evoked firing frequency, even surpassing the efficacy of AMTB […] (Fig. 7B).
Primary cultures of neonatal dorsal root ganglia were used for multielectrode array (MEA) and patch‐clamp experiments following established methodologies previously described. Neonatal dorsal root ganglia (DRGs) were obtained from Wistar rats (3–5 days old) and were isolated and digested with 0.25% (w/v) collagenase (type IA) in DMEM GlutaMax with 1% (v/v) penicillin/streptomycin (P/S) solution for 1 h at 37 °C in a 5% CO2 Thermo Scientific incubator. […]

[2] = Metabolic stability and metabolite profile in mouse liver microsomes (MLM); format: in vitro ADME; conditions: after 1 h at 37 °C, 50 μM substrate
Method: Because of the lack of systemic activity of compound 23, we evaluated the in vitro plasmatic and hepatic metabolic stability. To this aim, compound 23 was exposed to mouse plasma and mouse liver microsome (MLM) fractions, and the residual substrate was measured after 1 h. Under these conditions, the residual substrate was about 97% and 90% in plasma and microsomes, respectively, denoting that this molecule suffers from mild hydrolysis of the ester group.
Metabolic biotransformation of compound 23 was investigated by tandem high‐resolution mass spectrometry using the software COMPOUND DISCOVERER 3.2™.
The standard incubation mixture (250 μL final volume) was carried out in a 50 mM Tris (tris[hydroxymethyl]aminomethane) buffer (pH 7.4) containing 150 mM KCl, […], 3.3 mM MgCl2, 1.3 mM NADPNa2, 3.3 mM glucose 6‐phosphate, 0.4 units·mL^−1 glucose 6‐phosphate dehydrogenase, acetonitrile as cosolvent (1% of total volume), and the substrate (50 μM). After pre‐equilibration of the mixture, an appropriate volume of MLM suspension was added to give a final protein concentration of 1.0 mg·mL^−1. The mixture was shaken for 60 min at 37 °C using a horizontal shaking thermostatic bath while protecting the samples from light. Control incubations were carried out without the presence of substrate, or NADPH regenerating system, or microsomes. Each incubation was stopped by the addition of 250 μL of ice‐cold acetonitrile, vortexed, and centrifuged at 13 000 r.p.m. for 5 min [68]. The supernatants were analyzed by LC‐UV and LC‐HRMS equipment (see Tables S1 and S2, Fig. S79 for full parameters setting in the Supporting Information).
The metabolic stability of the compound 23 was determined in vitro by measuring the residual peak area after incubation by LC‐UV analysis. Samples were further processed by LC‐HRMS equipment for metabolite profiling. Raw data files were processed using both XCALIBUR® and COMPOUND DISCOVERER 3.2® software (Thermo Scientific) using a customized workflow for the detection and identification of the expected and unknown metabolites (Fig. S80).

## O=C(COC(=O)c1ccccc1-c1ccccc1)NC12CC3CC(CC(C3)C1)C2 [Compound 23, 2‐((3S,5S,7S)‐adamantan‐1‐ylamino)‐2‐oxoethyl [1,1′‐biphenyl]‐2‐carboxylate]
[1]
  inhibition at 0.43 µM: ≥ 75%
[2]
  residual substrate in mouse liver microsomes without NADPH regenerating system: ~90%
[2]; monooxygenase system activated
  residual substrate in mouse liver microsomes with NADPH regenerating system: about 42%

Source: paper PMC12220852, “An adamantane‐based ligand as a novel chemical tool for thermosensory TRPM8 channel therapeutic modulation” (The Febs Journal, 2025)
